From patent US20260217708A1, “FUSED BENZAZEPINE DERIVATIVES FOR USE IN THE TREATMENT OF CANCER AND EPILEPSY” (UCB BIOPHARMA SRL, priority 2023, published 2026) come the findings set out here.

Test [1] has as its target T1, system Xc^− (Homo sapiens, UniProt Q9UPY5).
T1 sequence (Q9UPY5 1-501): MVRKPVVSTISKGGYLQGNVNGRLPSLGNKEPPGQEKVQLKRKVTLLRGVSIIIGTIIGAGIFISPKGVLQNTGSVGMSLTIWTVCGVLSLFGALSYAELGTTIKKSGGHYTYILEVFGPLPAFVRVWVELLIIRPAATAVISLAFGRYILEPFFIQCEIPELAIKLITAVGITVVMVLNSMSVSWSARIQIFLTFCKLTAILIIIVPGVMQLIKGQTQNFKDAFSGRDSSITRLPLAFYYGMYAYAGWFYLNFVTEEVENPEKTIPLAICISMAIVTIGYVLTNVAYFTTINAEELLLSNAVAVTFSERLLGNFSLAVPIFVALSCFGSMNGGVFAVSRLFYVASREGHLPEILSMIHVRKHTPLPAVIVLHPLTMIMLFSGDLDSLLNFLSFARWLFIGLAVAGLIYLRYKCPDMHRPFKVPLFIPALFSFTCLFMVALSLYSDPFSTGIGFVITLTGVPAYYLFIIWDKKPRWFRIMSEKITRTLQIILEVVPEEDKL
T1 sequence (P08195 1-529 partner): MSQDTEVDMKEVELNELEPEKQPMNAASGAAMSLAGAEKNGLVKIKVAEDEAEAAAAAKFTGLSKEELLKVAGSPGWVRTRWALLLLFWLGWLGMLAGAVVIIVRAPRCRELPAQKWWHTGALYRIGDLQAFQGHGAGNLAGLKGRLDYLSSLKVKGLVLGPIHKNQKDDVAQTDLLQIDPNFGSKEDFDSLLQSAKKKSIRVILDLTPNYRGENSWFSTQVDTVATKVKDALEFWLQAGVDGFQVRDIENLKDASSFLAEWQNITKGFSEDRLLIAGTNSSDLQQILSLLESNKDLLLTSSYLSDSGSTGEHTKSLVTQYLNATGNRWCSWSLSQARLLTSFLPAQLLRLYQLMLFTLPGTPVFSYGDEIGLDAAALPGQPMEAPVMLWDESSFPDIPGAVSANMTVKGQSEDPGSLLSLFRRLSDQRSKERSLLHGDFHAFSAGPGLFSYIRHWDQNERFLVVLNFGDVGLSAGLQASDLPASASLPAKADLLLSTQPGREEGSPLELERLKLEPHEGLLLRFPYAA
The test can be described thus: Cystine-induced glutamate release assay. It counts as cell-based. Details: endogenous in cells; host or cells: H4 cells. The note with it: H4 cells, sodium-free HEPES buffer, 50 μM L-Cystine, 2 hours, Amplex Red glutamate readout; read-out: pIC50 Cystine-induced glutamate release assay (converted). The method, boiled down: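 IC50 (reported as pIC50) normalized to DMSO 1% and Erastin 50 μM controls, from Amplex Red fluorescence of glutamate exported into supernatant. H4 cells were washed into sodium-free buffer to exclude EAAT transport, then given compound with 50 μM L-cystine for 2 h in the incubator.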

Test [2] concerns the target T1, system Xc^−. The test can be described thus: [^14C]L-Cystine uptake assay. The note with it: H4 cells, sodium-free HEPES buffer, 0.5 μM L-[14C]Cystine and 4.5 μM L-Cystine, 1 hour at 37° C.; read-out: pIC50 [^14C] L-Cystine uptake assay (converted). It counts as cell-based. Details: endogenous in cells; host or cells: H4 cells. The essentials: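 Compound effect is given as pIC50, taken between controls of 1% DMSO and 50 μM Erastin. Human H4 cells were pretreated 15 min with compound in sodium-free buffer, then took up 0.5 μM [14C]cystine with 4.5 μM cold cystine for 1 hour at 37° C, read by scintillation proximity counting.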

Take `CC1C(=O)N(CC(=O)Nc2ccc(C(F)F)cc2)c2cc(N3CC4(C3)CC4(F)F)nc(F)c2-c2cccnc21` (single isomer, unassigned) [#286, 2-[5-(2,2-difluoro-5-azaspiro[2.3]hexan-5-yl)-3-fluoro-10-methyl-9-oxo-4,8,12-triazatricyclo[9.4.0.0^2,7]pentadeca-1(15),2,4,6,11,13-hexaen-8-yl]-N-[4-(difluoromethyl)phenyl]acetamide]: the IC50 on system Xc^− [1] and on system Xc^− [2] was < 15.8 nM each time.

As for `O=C(CN1C(=O)Cc2cccnc2-c2cnc(Cl)cc21)Nc1ccc(Br)c(Cl)c1` [#19, N-(4-bromo-3-chloro-phenyl)-2-(13-chloro-9-oxo-3,10,14-triazatricyclo[9.4.0.0^2,7]pentadeca-1(11),2(7),3,5,12,14-hexaen-10-yl)acetamide], the IC50 at system Xc^− [1] and at system Xc^− [2] was 100 to 501 nM each time.

`CC1C(=O)N(CC(=O)Nc2ccc(Cl)c(F)c2)c2cc(Cl)cc(F)c2-c2ccnnc21` (single isomer, unassigned) [#384, 2-[9-chloro-11-fluoro-5-methyl-6-oxo-5H-pyridazino[3,4-d][1]benzazepin-7-yl]-N-(4-chloro-3-fluoro-phenyl)acetamide]: the IC50 at system Xc^− [1] and on system Xc^− [2] was < 15.8 nM each time.

For `O=C(CN1C(=O)Cc2cccnc2-c2cnc(Cl)cc21)Nc1ccc(C(F)(F)F)cc1` [#7, 2-(13-chloro-9-oxo-3,10,14-triazatricyclo[9.4.0.0^2,7]pentadeca-1(11),2(7),3,5,12,14-hexaen-10-yl)-N-[4-(trifluoromethyl)phenyl]acetamide], the IC50 at system Xc^− [1] was 100 to 501 nM; at system Xc^− [2], 39.8 to 100 nM.

In the case of `Cc1cc2c(c(F)n1)-c1cccnc1[C@@H](C)C(=O)N2CC(=O)Nc1ccc(C(C)(F)F)c(F)c1` (single isomer, unassigned) [#236], the IC50 on system Xc^− [1] and at system Xc^− [2] was 15.8 to 39.8 nM throughout.

Turning to `Cc1cc2c(c(F)n1)-c1cccnc1[C@@H](C)C(=O)N2CC(=O)Nc1ccc(Cl)cc1F` [#242, N-(4-chloro-2-fluoro-phenyl)-2-[(10R)-3-fluoro-5,10-dimethyl-9-oxo-4,8,12-triazatricyclo[9.4.0.0^2,7]pentadeca-1(15),2,4,6,11,13-hexaen-8-yl]acetamide], the IC50 at system Xc^− [1] is 15.8 to 39.8 nM; at system Xc^− [2], 39.8 to 100 nM.

As to `Cc1cc2c(c(F)n1)-c1cccnc1[C@@H](C)C(=O)N2CC(=O)Nc1ccc2c(c1)CC(F)(F)C2` [#237, N-(2,2-difluoroindan-5-yl)-2-[(10R)-3-fluoro-5,10-dimethyl-9-oxo-4,8,12-triazatricyclo[9.4.0.0^2,7]pentadeca-1(15),2,4,6,11,13-hexaen-8-yl]acetamide], the IC50 was 15.8 to 39.8 nM on system Xc^− [1] and 39.8 to 100 nM at system Xc^− [2].

For `CC1C(=O)N(CC(=O)Nc2ccc(Cl)c(F)c2)c2cc(N3CC4(C3)CC4(F)F)nc(F)c2-c2cccnc21` (single isomer, unassigned) [#270, N-(4-chloro-3-fluoro-phenyl)-2-[5-(2,2-difluoro-5-azaspiro[2.3]hexan-5-yl)-3-fluoro-10-methyl-9-oxo-4,8,12-triazatricyclo[9.4.0.0^2,7]pentadeca-1(15),2,4,6,11,13-hexaen-8-yl]acetamide], the IC50 on system Xc^− [1] and at system Xc^− [2] was 39.8 to 100 nM each time.

`Cc1cc2c(c(F)n1)-c1cc[nH]c(=O)c1CC(=O)N2CC(=O)Nc1ccc(C(F)(F)F)cc1` [#183, 2-(3-fluoro-5-methyl-9,12-dioxo-4,8,13-triazatricyclo[9.4.0.0^2,7]pentadeca-1(11),2(7),3,5,14-pentaen-8-yl)-N-[4-(trifluoromethyl)phenyl]acetamide]: the IC50 on system Xc^− [1] is 100 to 501 nM; on system Xc^− [2], 39.8 to 100 nM.

`Cc1cc2c(c(=O)[nH]1)-c1ccccc1C(C)C(=O)N2CC(=O)Nc1ccc(C(F)(F)F)cc1` (centres unmarked) [#156, 2-(3,7-dimethyl-1,6-dioxo-2,7-dihydropyrido[4,3-d][3]benzazepin-5-yl)-N-[4-(trifluoromethyl)phenyl]acetamide]: the IC50 at system Xc^− [1] is 15.8 to 39.8 nM; on system Xc^− [2], 39.8 to 100 nM.

As for `Cc1cc2c(cn1)-c1ccccc1CC(=O)N2CC(=O)Nc1ccc(C(F)(F)F)cc1` [#14, 2-(3-methyl-6-oxo-7H-pyrido[4,3-d][3]benzazepin-5-yl)-N-[4-(trifluoromethyl)-phenyl]acetamide], the IC50 was 100 to 501 nM at system Xc^− [1] and < 15.8 nM at system Xc^− [2].

On to `COc1nc(C)cc2c1-c1cccnc1C(O)C(=O)N2CC(=O)Nc1ccc(C(F)(F)F)cc1` (centres unmarked) [#96, 2-(10-hydroxy-3-methoxy-5-methyl-9-oxo-4,8,12-triazatricyclo[9.4.0.0^2,7]pentadeca-1(11),2,4,6,12,14-hexaen-8-yl)-N-[4-(trifluoromethyl)phenyl]acetamide], for which the IC50 on system Xc^− [1] and at system Xc^− [2] was 15.8 to 39.8 nM each time.

Consider `Cc1cc2c(n(C)c1=O)-c1ccccc1CC(=O)N2CC(=O)Nc1ccc(Cl)c(F)c1` [#350, N-(4-chloro-3-fluoro-phenyl)-2-(1,3-dimethyl-2,6-dioxo-7H-pyrido[3,2-d][3]benzazepin-5-yl)acetamide], for which the IC50 on system Xc^− [1] and at system Xc^− [2] was 15.8 to 39.8 nM each time.

On to `CC1C(=O)N(CC(=O)Nc2ccc(Cl)c(F)c2)c2cc(C3(F)CC3)ncc2-c2cc(F)cnc21` (single isomer, unassigned) [#326, N-(4-chloro-3-fluoro-phenyl)-2-[14-fluoro-5-(1-fluorocyclopropyl)-10-methyl-9-oxo-4,8,12-triazatricyclo[9.4.0.0^2,7]pentadeca-1(15),2,4,6,11,13-hexaen-8-yl]acetamide], for which the IC50 on system Xc^− [1] and on system Xc^− [2] was < 15.8 nM in each case.

`CC1C(=O)N(CC(=O)Nc2ccc(C(F)F)cc2)c2cc(N3CC(F)(F)C3)nc(F)c2-c2cccnc21` (single isomer, unassigned) [#280, 2-[5-(3,3-difluoroazetidin-1-yl)-3-fluoro-10-methyl-9-oxo-4,8,12-triazatricyclo[9.4.0.0^2,7]pentadeca-1(11),2(7),3,5,12,14-hexaen-8-yl]-N-[4-(difluoromethyl)phenyl]acetamide]: the IC50 on system Xc^− [1] and at system Xc^− [2] was < 15.8 nM in each case.

Take `CC1C(=O)N(CC(=O)Nc2ccc(C(F)(F)F)cc2)c2cn(C)c(=O)c(F)c2-c2cccnc21` (single isomer, unassigned) [#184, enantiomer (10R) or (10S) of 2-(3-fluoro-5,10-dimethyl-4,9-dioxo-5,8,12-triazatricyclo[9.4.0.0^2,7]pentadeca-1(11),2,6,12,14-pentaen-8-yl)-N-[4-(trifluoromethyl)phenyl]acetamide]: the results for the IC50 on system Xc^− [1] and at system Xc^− [2] were 15.8 to 39.8 nM and < 15.8 nM, respectively.

`CC1C(=O)N(CC(=O)Nc2ccc(C(F)F)cc2)c2cc(N3CC4(COC4)C3)nc(F)c2-c2cccnc21` (single isomer, unassigned) [#284, N-[4-(difluoromethyl)phenyl]-2-[3-fluoro-10-methyl-5-(2-oxa-6-azaspiro[3.3]heptan-6-yl)-9-oxo-4,8,12-triazatricyclo[9.4.0.0^2,7]pentadeca-1(15),2,4,6,11,13-hexaen-8-yl]acetamide]: the IC50 on system Xc^− [1] and at system Xc^− [2] was < 15.8 nM in each case.

In the case of `COc1ncc2c(c1C)-c1cccnc1CC(=O)N2CC(=O)Nc1ccc(C(F)(F)F)cc1` [#67, 2-(4-methoxy-3-meth-yl-9-oxo-5,8,12-triaza-tricyclo[9.4.0.0^2,7]pentadeca-1(11),2(7), 3,5,12,14-hexaen-8-yl)-N-[4-(trifluoromethyl)-phenyl]acetamide], the IC50 on system Xc^− [1] was 39.8 to 100 nM; on system Xc^− [2] it was 100 to 501 nM.

Turning to `Cc1cc2c(c(F)n1)-c1ccccc1CC(=O)N2CC(=O)Nc1ccc(C(F)(F)F)cc1` [#39, 2-(1-fluoro-3-methyl-6-oxo-7H-pyrido[4,3-d][3]benzazepin-5-yl)-N-[4-(trifluorometh-yl)phenyl]acetamide], the IC50 at system Xc^− [1] and at system Xc^− [2] was 15.8 to 39.8 nM each time.
